The values that follow come from US20170157143A1, “NORPREGNANE DERIVATIVES FOR THE RISK REDUCTION OF BREAST CANCER” (Helix Twelve Pharmaceuticals Corporation, Inc., priority 2015, published 2017).

Series [1] relates to breast carcinoma. The experiment in a line: HLX-801 prophylactic therapy against breast cancer in at-risk subject groups compared to tamoxifen. The format is in vivo, human. On the procedure: Table 1: Exemplary effect of HLX-801 prophylactic therapy against breast cancer cells in at-risk subject groups compared to Tamoxifen (“TAM”) 1 mg.
Series [2] is described as follows: Side effect profile of HLX-801. Conditions: in vivo. The text has this:
The compounds are associated with the absence of the side effects that currently limit the adoption of the currently available tamoxifen and aromatase inhibition approaches by at risk individuals.

The test system of series [3] is breast cancer. Conditions: DCIS patients; cited from earlier work.

As for `CCN(CC)Cc1ccc(OCC[C@H]2CCC3C4[C@H](C)Cc5cc(O)ccc5[C@H]4CC[C@@]32C)c(OC)c1` (stereo partly drawn) [HLX-801, (7α)-21-[4-[(diethylamino)methyl]-2-methoxyphenoxy]-7-methyl-19-norpregna-1,3,5(10)-trien-3-ol 2-hydroxy-1,2,3-propanetricarboxylate], the “No. of subjects developing breast carcinoma” value was determined as 3 in series [1] (HLX-801 1 mg, patients group 7/17); 2 in series [1] (HLX-801 1 mg, patients group 7/21); 3 in series [1] (HLX-801 1 mg, patients group 7/24); 1 in series [1] (HLX-801 5 mg, patients group 7/17); 2 in series [1] (HLX-801 5 mg, patients group 7/21); 2 in series [1] (HLX-801 5 mg, patients group 7/24). For the same molecule, the “No. of subjects developing breast carcinoma” value in series [1] (HLX-801 10 mg, patients group 7/17) is reported as 1; in series [1] (HLX-801 10 mg, patients group 7/21), 1; in series [1] (HLX-801 10 mg, patients group 7/24), 1; in series [1] (HLX-801 20 mg, patients group 7/17), 1; in series [1] (HLX-801 20 mg, patients group 7/21) it was 1; in series [1] (HLX-801 20 mg, patients group 7/24), 1. For the same molecule, the “No. of subjects developing breast carcinoma” value was determined as 1 in series [1] (HLX-801 40 mg, patients group 7/17); 1 in series [1] (HLX-801 40 mg, patients group 7/21); 1 in series [1] (HLX-801 40 mg, patients group 7/24); 1 in series [1] (HLX-801 80 mg, patients group 7/17); 1 in series [1] (HLX-801 80 mg, patients group 7/21); 1 in series [1] (HLX-801 80 mg, patients group 7/24). The “bone loss (long-term risk of fractures)” value in series [2] is on record as “no evidence of bone loss”. Also, the muscle aches result in series [2] is on record as “no reports of muscle aches”. In addition, the “uterine thickening (indicator of risk for treatment-induced uterine cancer)” value in series [2] was “no evidence of uterine thickening”. In series [2], the “venous thrombembolism (indicator of risk for stroke)” value was “no evidence of venous thrombembolism”.

`CC/C(=C(\c1ccccc1)c1ccc(OCCN(C)C)cc1)c1ccccc1` [TAM, Tamoxifen, reference compound]: the “No. of subjects developing breast carcinoma” value in series [1] (TAM 1 mg, patients group 7/17) is listed as 12; in series [1] (TAM 1 mg, patients group 7/21), 11; in series [1] (TAM 1 mg, patients group 7/24 (# of cohorts/# of subjects per cohort)), 12. For the same molecule, in series [3], the “reduction of the risk to progression to breast cancer” value is given as 30%.
